Reference: patent publication US12201696B2, “Multiplexed analysis of materials for tissue delivery” (Georgia Tech Research Corporation, priority 2017, dated 2025)

System: HEK293 cells stably transduced with a CMV-lox-GFP-stop-lox-RFP construct
Assay: Endocytosis inhibition in LGSL-RFP HEK cells
Assay type: cell-based
Conditions: for effect on in vitro endocytosis and functional Cre mRNA delivery of ATL1 and ATL2: LGSL-RFP cells
Protocol: For experiments shown in FIG. 1, cells were incubated with endocytosis inhibitors 1 hour prior to incubation with pooled LNPs against clathrin-mediated endocytosis (chlorpromazine, 100 μM, Alfa Aesar), caveolae-mediated endocytosis (genistein, 100 μM, TCI America), and macropinocytosis (5-(N-Ethyl-N-isopropyl) Amiloride, EIPA, 50 μM, Toronto Research Chemicals).
To determine whether FIND could simultaneously measure delivery mediated by many nanoparticles, 54 chemically distinct LNPs were formulated (Table 5, FIGS. 4J-4O); each carried Cre mRNA and a unique DNA barcode. The LNPs were administered to HEK cells in a 6 well plate using an mRNA dose of 10, 100, or 1000 ng/well, and a mRNA: DNA barcode mass ratio of 10:1. A dose-dependent increase in RFP^+ cells was observed, with over 80% of the cells RFP^+ at 1000 ng 72 hours after transfection (FIG. 1G). Barcodes were deep sequenced at all 3 doses, reasoning that LNPs which delivered barcodes at the lowest dose (4% RFP^+ cells) would also deliver LNPs at the middle dose (20% RFP^+ cells). There was a strong relationship between normalized delivery at these 2 doses (FIG. 1H). Cells treated with 1000 ng mRNA were also sequenced. As expected, the relationship between 1000 ng and either 10 or 100 ng weakened, since at this dose, nearly all the cells (>80% were RFP^+), leading to system saturation (FIG. 4P-4Q). Finally, it was evaluated whether the number of RFP^+ cells decreased when cells were pre-treated with Chlorpromazine, Genistein, or Ethylisopropyl amiloride (EIPA), which inhibit clathrin-, caveolin-, and macropinocytosis-mediated endocytosis, respectively. Compared to cells that were not treated with inhibitors, the number of RFP^+ cells decreased by 40-60%, recapitulating previous LNP results (Sahay, Querbes et al. 2013, Dahlman, Barnes et al. 2014, Wittrup, Ai et al. 2015) (FIG. 1I).
Like all high throughput screens, LNPs identified by FIND need to be validated. ATL1 and ATL2 (FIG. 3A, 3B-3E) were selected. […] (FIG. 6C-6F).

## CN(C)CCCN1c2ccccc2Sc2ccc(Cl)cc21 [Chlorpromazine, chlorpromazine]
Homo sapiens, HEK293, pre-treatment 1 hour before pooled 54 LNPs (100 ng total mRNA), chlorpromazine 100 μM, genistein 100 μM, EIPA 50 μM, read-out: decrease in number of RFP+ cells compared to cells not treated with inhibitors
  inhibition at 100 µM: 40 to 60%
  effect on in vitro endocytosis and functional Cre mRNA delivery of ATL1 and ATL2: inhibited

## CCN(c1nc(N)c(C(=O)N=C(N)N)nc1Cl)C(C)C [EIPA, 5-(N-Ethyl-N-isopropyl) Amiloride]
  effect on in vitro endocytosis and functional Cre mRNA delivery of ATL1 and ATL2: only impacted LNP uptake

## O=c1c(-c2ccc(O)cc2)coc2cc(O)cc(O)c12 [Genistein, genistein]
  effect on in vitro endocytosis and functional Cre mRNA delivery of ATL1 and ATL2: inhibited
